Patent US8664243B2, “Sulfonamide compound and crystal thereof” (Asahi Kasei Pharma Corporation, priority 2007, dated 2014)

Experiments:
Format in all cases: physicochemical
[1] = Hygroscopicity Test 2 (25° C. and 84% RH; free base, salts and salt mixtures); conditions: for Appearance / Water content / Purity: 25° C. and 84% RH, dark; for Purity: HPLC
Description: (§1) Hygroscopicity of Compound 1 or the substance in the form of a salt can be evaluated by putting a sample on a glass weighing dish, storing the dish in a dark place for a given period of time in an open state at a temperature of 25 to 40° C. under a humidification condition of about 75 to 94% relative humidity, and then observing or measuring appearance, purity, water content and the like of Compound 1 or the substance in the form of a salt. Increase of water content before and after storage especially serves as an important hygroscopic index. For example, the evaluation is preferably performed after storage conditions of 25° C. and 84% RH. • High performance liquid chromatography apparatus: LC-10A Series (Shimadzu) or Agilent 1100 series (Agilent Technologies) • Solution concentration: 500 μg/ml • Injection: 10 μl • Detector: Ultraviolet absorptiometer (measurement wavelength: 245 nm) • Column: XBridge Shield RP18 5 μm, internal diameter: 4.6 mm, length: 15 cm (Waters) • Column temperature: Constant temperature around 40° C. • Mobile phase A: 20 mmol/l Sodium phosphate buffer (pH 7.0) • Mobile phase B: Acetonitrile • Liquid feeding program: A concentration gradient was formed by changing the mixing ratio of the mobile phase A and the mobile phase B as shown in Table 1. • Flow rate: 1.0 ml/minute • Water content measurement apparatus: AQ-7 (Hiranuma Sangyo) • Sample amount: 5 mg • Anolyte: Aqualyte RS (Sigma-Aldrich) • Catholyte: Aqualyte CN (Sigma-Aldrich) Compound 1 obtained by a method similar to the method described in Example 1 (two kinds of lots), the monohydrochloride obtained by the method described in Example 3, the dihydrochloride, and mixtures of the monohydrochloride and the dihydrochloride at ratios of 9:1, 8:2, 6:4, 4:6 and 2:8 were weighed on a glass weighing dish in an amount of each 40 mg, and each sample was stored in a dark place at 25° C. and 84% RH for 2 to 4 weeks. After the storage, appearance was evaluated by visual inspection. Further, purity was measured under the conditions of Test Example 7, and water content was measured under the conditions of Test Example 8.

[2] = Thermal stability test (sealed glass vial, dark place, 60° C.); conditions: for Appearance / Water content / Purity: 60° C., dark, sealed vial; for Purity: HPLC
Description: Thermal stability of Compound 1 or the substance in the form of a salt can be evaluated by, for example, sealing a sample in a glass vial or the like, storing the vial under a severe temperature condition such as 40 to 80° C. in a dark place for a given period of time, and then observing or measuring appearance, purity, water content and the like of Compound 1 or the substance in the form of a salt. Change of purity before and after storage especially serves as an important index of thermal stability. For example, the evaluation is preferably performed under a storage condition of 60° C. • High performance liquid chromatography apparatus: LC-10A Series (Shimadzu) or Agilent 1100 series (Agilent Technologies) • Solution concentration: 500 μg/ml • Injection: 10 μl • Detector: Ultraviolet absorptiometer (measurement wavelength: 245 nm) • Column: XBridge Shield RP18 5 μm, internal diameter: 4.6 mm, length: 15 cm (Waters) • Column temperature: Constant temperature around 40° C. • Mobile phase A: 20 mmol/l Sodium phosphate buffer (pH 7.0) • Mobile phase B: Acetonitrile • Liquid feeding program: A concentration gradient was formed by changing the mixing ratio of the mobile phase A and the mobile phase B as shown in Table 1. • Flow rate: 1.0 ml/minute • Water content measurement apparatus: AQ-7 (Hiranuma Sangyo) • Sample amount: 5 mg • Anolyte: Aqualyte RS (Sigma-Aldrich) • Catholyte: Aqualyte CN (Sigma-Aldrich) The monohydrochloride obtained by the method described in Example 3, the monohydrobromide obtained by the method described in Example 4, and the dihydrochloride as a control were weighed in a glass vial in an amount of 40 mg each, and the glass vial was sealed. Each sample was stored in a dark place at 60° C. for 2 to 4 weeks, and after the storage, appearance was evaluated by visual inspection. Further, purity was measured under the conditions of Test Example 7, and water content was measured under the conditions of Test Example 8.

[3] = Hygroscopicity Test 1 (open glass weighing dish, dark place, 25° C. and 84% RH); conditions: for Appearance / Water content / Purity: 25° C. and 84% RH, dark, open; for Purity: HPLC
Description: as §1, with “(Sigma-Aldrich) The” for “(Sigma-Aldrich) Compound 1 obtained by a method similar to the method described in Example 1 (two kinds of lots), the”, “the monohydrobromide obtained by” for “the dihydrochloride, and mixtures of”, “the method described in Example 4,” for “the monohydrochloride”, “dihydrochloride as a control” for “dihydrochloride at ratios of 9:1, 8:2, 6:4, 4:6 and 2:8”, “of” for “of each”, “40 mg each,” for “40 mg,”

[4] = Measurement of water content (coulometric titration method); conditions: as prepared, sample 5 mg
Source text: For evaluation of purity of Compound 1 or the substance in the form of a salt, the area percentage method based on HPLC is convenient. For evaluation of water content of Compound 1 or the substance in the form of a salt, the volumetric titration method, the coulometric titration method described in Japanese Pharmacopoeia, General Test Methods, “Water Determination”, the loss on drying test and the like can be used. When sample weight is small, the coulometric titration method can be preferably chosen.

[5] = storage for two weeks at 25° C. and 84% RH
[6] = after storage at 60° C. for 4 weeks
[7] = after storage at 25° C. and 84% RH for 4 weeks

Row | Appearance ([1]; after 2 weeks) | Appearance ([1]; before storage) | Purity ([1]; after 2 weeks) [%] | Purity ([1]; before storage) [%] | Appearance ([2]; after 2 weeks) | Water content ([2]; after 2 weeks) [%] | Appearance ([2]; before storage) | Water content ([2]; before storage) [%] | Purity ([2]; after 2 weeks) [%] | Purity ([2]; before storage) [%] | Appearance ([3]; after 2 weeks) | Water content ([3]; after 2 weeks) [%] | Appearance ([3]; before storage) | Water content ([3]; before storage) [%] | Purity ([3]; after 2 weeks) [%] | Purity ([3]; before storage) [%] | Structure (SMILES) | also measured
1 | Slightly | Slightly | 99.9 | 99.9 | – | – | – | – | – | – | – | – | – | – | – | – | CN[C@H]1CCN(S(=O)(=O)c2cccc3cncc(Cl)c23)C1 [Compound 1, (S)-1-(4-chloro-5-isoquinolinesulfonyl)-3-(methylamino)pyrrolidine] | Water content ([1]; after 2 weeks, listed as Compound 1 (Lot 1)): 5.7%; Water content ([1]; after 2 weeks, listed as Compound 1 (Lot 2)): 7.6%; Appearance ([1]; after 4 weeks): Slightly; Water content ([1]; after 4 weeks, listed as Compound 1 (Lot 1)): 8.1%; Water content ([1]; after 4 weeks, listed as Compound 1 (Lot 2)): 9.1%; Water content ([1]; before storage, listed as Compound 1 (Lot 1)): 0.9%; Water content ([1]; before storage, listed as Compound 1 (Lot 2)): 1.7%; Purity ([1]; after 4 weeks): 99.9%; Moisture absorption ([1]; both lots, after storage at 25° C. and 84% RH for 4 weeks): further moisture absorption
2 | Pale | White | 99.9 | 100.0 | Pale brown | 2.93 | White | 3.76 | 99.5 | 98.1 | Brown | 15.24 | White | 3.76 | 99.3 | 98.1 | CN[C@H]1CCN(S(=O)(=O)c2cccc3cncc(Cl)c23)C1.Cl.Cl [Dihydrochloride, (S)-1-(4-chloro-5-isoquinolinesulfonyl)-3-(methylamino)pyrrolidine dihydrochloride, reference compound] | Change of appearance ([2]; after storage at 60° C. for 2 weeks, dihydrochloride): change of appearance; Changes in physicochemical properties ([2]; stability test at 60° C. for two weeks): changes in physicochemical properties; Water content ([1]; after 2 weeks): 19.8%; Water content ([1]; before storage): 5.2%; Moisture absorption ([3]; after storage at 25° C. and 84% RH for 2 weeks): marked moisture absorption; Change of appearance ([3]; after storage at 25° C. and 84% RH for 2 weeks, dihydrochloride): apparent change of appearance; Changes in physicochemical properties [3, 5]: changes in physicochemical properties; Hygroscopicity [3, 5]: remarkable hygroscopicity
3 | – | – | – | – | White | 0.05 | White | 0.14 | 99.9 | 99.7 | White | 0.05 | White | 0.14 | 99.9 | 99.7 | Br.CN[C@H]1CCN(S(=O)(=O)c2cccc3cncc(Cl)c23)C1 [Monohydrobromide, (S)-1-(4-chloro-5-isoquinolinesulfonyl)-3-(methylamino)pyrrolidine monohydrobromide] | Appearance ([2]; after 4 weeks): White; Water content ([2]; after 4 weeks): 0.05%; Purity ([2]; after 4 weeks): 99.8%; Thermal stability compared with the dihydrochloride ([2]; Test Example 9, 60° C.): more satisfactory thermal stability; Change of appearance [2, 6]: no change of appearance; Degradation of purity [2, 6]: no degradation of purity; Water content [4]: 0.14%; Appearance ([3]; after 4 weeks): White; Water content ([3]; after 4 weeks): 0.05%; Purity ([3]; after 4 weeks): 99.7%; Hygroscopicity compared with the dihydrochloride ([3]; Test Example 10, 25° C. and 84% RH): remarkably lower hygroscopicity; Change of appearance [3, 7]: no change of appearance; Degradation of purity [3, 7]: no degradation of purity; Increase of water content [3, 7]: no substantial increase of water content
